From patent US8481494B2, “Compounds for the treatment of diseases related to protein misfolding” (priority 2009, dated 2013)
In brackets after ≈: the same amount, converted by molar mass. Like-named read-outs stand apart in the source and are kept apart here.

How the values were obtained:
[1] = Solubility of the unprotected aminopyrazole trimers (stock solutions); conditions: water (class a) or DMSO (class b)
Experimental: The ligands were dissolved in 100% DMSO as 4.95 mM stock solutions and were stored at −20° C.

[2] = test system: differentiated rat pheochromocytoma (PC-12) cells; assay: cells; conditions: for PC-12 cell protection: in words, compared to the Trimer standard
Experimental: Next, to examine whether the aminopyrazole trimers could protect cell from Aβ42-induced neurotoxicity, cells were treated for […] with 10 μM Aβ(1-42), a concentration that produces 30 to 40% decrease in cell viability, in the absence or presence of 100 μM of each compound. The viability of the cells then was assessed using the MTT assay.
MTT viability assays. Cell viability assays were performed as described in Fradinger et al. (Fradinger et al., PNAS, 2008). Rat pheochromocytoma (PC-12) cells were maintained in F-12 nutrient mixture with Kaighn's modification (F-12K) (Gibco BRL, Carlsbad, Calif.) with 15% heat-inactivated horse serum and 2.5% FBS at 37° C. in an atmosphere of 5% CO2. For cell viability assays, cells were plated in 96-well plates at a density of 25,000 cells per well in differentiation media (F-12K, 0.5% FBS, […] nerve growth factor) and maintained for 48 h. Aβ42 was solubilized in a minimal amount of DMSO (Sigma) and then diluted in the F-12K media in the absence or presence of the compounds and then added to cells and incubated for 48 h at 37° C. The final Aβ42 concentration was always kept constant at 10 μM. The stock solutions of the compounds were prepared at 10 mM in DMSO and diluted in the F-12K media at the required concentration. Negative controls included DMSO at the same concentration as in the peptide solutions and media alone. A positive control was […] staurosporine as lethal dose which represented 100% reduction in cell viability, based on which the percentage viability of all of the experimental conditions was calculated. Cell viability was assessed quantitatively by the CellTiter 96 Non-Radioactive Cell Proliferation Assay (Promega). Briefly, 15 μl of 3-(4,5-dimethylthiazol-2-yl)-2,5-diphenyltetra-zolium bromide (MTT) dye solution was incubated with the cells for 3 h. Then 100 μl of solubilization/stop solution was added and the plates were incubated overnight in the dark to ensure complete solubilization. Plates were read by using a Synergy HT microplate reader (BioTek), and the absorbance at 570 nm (formazan product) minus the absorbance at 630 nm (background) was recorded. Corrected absorbance was used to calculate the percent cell viability from the experimental change (Amedia-Aexperimental) over the dynamic range (Amedia-Astaurosporine). At least three independent experiments with six replicates (n≧18) were carried out, and the results were averaged.
To determine the IC50 value of each of the compounds, dose-dependence MTT experiments with the compounds were conducted. Aβ42 was used at 10 μM and the compounds were used at 100, 30, 10, 3, 1 and 0.3 μM. Three independent experiments with six replicates (n≧18) were carried out, and results were averaged. The data for each compound was fitted to the following equation to get the IC50 values. y=Bottom+((Top−Bottom)/(1+10^(x-log(IC^50^))))
Top: the y value at which the top of the sigmoidal curve becomes parallel to the X-axis; Bottom: the y value at which the bottom of the sigmoidal curve becomes parallel to the X-axis.
Also, MTT viability assays were run with differentiated PC-12 cells.

[3] = target: T1, Aβ(1-42) (Homo sapiens, UniProt P05067); assay: ThT equilibrium inhibition assay of Aβ aggregation; type: biochemical; conditions: for ThT values compared with the original trimer: Aβ(1-42), in words
T1 construct: Aβ(1-42)-peptide (Bachem, Bubendorf, Germany) was prepared in HFIP; purchased Bachem, Bubendorf
T1 sequence (P05067 672-713 limits assumed): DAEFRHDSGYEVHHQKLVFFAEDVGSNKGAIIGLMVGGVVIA
Experimental: After 72 h, the aggregation process has reached a maximum in the absence or presence of any trimeric ligand, even for the slow Aβ (1-40) peptide. The respective equilibrium concentration is then indicated by the relative fluorescence intensity reached at the end point. The full series of new aminopyrazole trimer derivatives was subjected to ThT inhibition experiments and the final equilibrium was analyzed by comparison of the respective fluorescence intensities of intercalated dye at 482 nm (exc. at 442 nm). […] Their proposed mechanism of action is discussed within the next chapters together with all the other biophysical, biochemical as well as modeling data.
(§1) Thioflavin T (ThT) measurements were carried out in a 384-well plate (Nunc GmbH, Wiesbaden, Germany) in an InfiniTe 200 plate reader (Tecan GmbH, Crailsheim, Germany). Fluorescence intensity was measured at 37° C., 446 nm excitation wavelength (bandwidth 9 nm) and 490 nm emission wavelength with a bandwidth of 20 nm. Each data point was averaged over 40 lamp flashes. Each measurement cycle was started by shaking the sample carrier orbitally for 30 s at medium intensity to avoid settling of larger aggregates. The 384-well plate was covered with a transparent and DMSO-stable film (Nunc GmbH, Wiesbaden, Germany). Each single sample was composed of 33 μM Aβ(1-40) or rather Aβ(1-42) in 10 mM PBS (phosphate buffered saline), 10.7% DMSO, 10 μM ThT and 198 μM of the test compound. For graph representation emission values of fourfold samples were averaged. Each test compound was measured separately, both in 10 mM PBS and 10 mM PBS with ThT to exclude any potential interactions between ligand and ThT.
The ThT assay solution was briefly centrifugated and it was pipetted in a 384-well plate. The ThT fluorescence was measured at λEx=446 nm and λEm=490 nm. Each point is the average of quadruplication.

[4] = target: T2, preformed Aβ(1-42) fibrils (Homo sapiens, UniProt P05067); assay: ThT equilibrium disaggregation assay of preformed fibrils; type: biochemical; conditions: 33 μM Aβ42 preformed fibrils, 198 μM ligand, 10 mM PBS pH 7.3
T2 construct: Aβ(1-42)-peptide (Bachem, Bubendorf, Germany) was prepared in HFIP; purchased Bachem, Bubendorf
T2 sequence (P05067 672-713 limits assumed): as above
From the text: Starting from preformed fibrils, the disassembly process was also monitored with the full series of modified trimeric aminopyrazoles. […] In other words, little difference is observed between the end points of aggregation assays, in which the ligand inhibits de novo aggregation starting from monomeric Aβ molecules, and those experiments, which require disaggregation of preformed fibrils by externally added ligand. Experimental evidence is thus provided for the fact, that aminopyrazole ligands operate in a fully reversible fashion, and reach an open equilibrium when the thermodynamically most favorable complex is formed.
as §1
After that, 9.5 μL ThT (62.7 μM stock solution) was pipetted and the assay solution was briefly centrifugated. The ThT fluorescence was measured at λEx=446 nm and λEm=490 nm. For graph representation emission values of fourfold samples were averaged.

[5] = Rattus norvegicus, PC-12, read-out: IC50 of inhibition of Aβ-induced toxicity

CC(NC(=O)C(NC(=O)c1cc(NC(=O)c2cc(NC(=O)c3cc([N+](=O)[O-])n[nH]3)n[nH]2)n[nH]1)C1CCCCC1)C1CCCCC1 (stereo not drawn) [Trimer-Chg-Che, N-(1-Cyclohexyl-2-(1-cyclohexylethylamino)-2-oxoethyl)-3-(3-(3-nitro-1H-pyrazol-5-carboxamido)-1H-pyrazol-5-carboxamido)-1H-pyrazol-5-carboxamide]
solubility [1]: 0.2 to 4.95 mM (≈ 125 to 3090 µg/mL)
IC50 [2, 5]: 81 µM

CCCCCCCCCCCCNC(=O)COCCOCCOCCNC(=O)c1cc(NC(=O)c2cc(NC(=O)c3cc([N+](=O)[O-])n[nH]3)n[nH]2)n[nH]1 [Trimer-TEG-Dodecyl, 3-Nitro-N-(5-(5-(11-oxo-3,6,9-trioxa-12-azatetracosylcarbamoyl)-1H-pyrazol-3-ylcarbamoyl)-1H-pyrazol-3-yl)-1H-pyrazole-5-carboxamide]
solubility [1]: 0.2 to 4.95 mM (≈ 146 to 3620 µg/mL)
IC50 [2, 5]: > 100 µM

NCCNC(=O)c1cc(NC(=O)c2cc(NC(=O)c3cc([N+](=O)[O-])n[nH]3)n[nH]2)n[nH]1 [Trimer-diamine, N-(2-Aminoethyl)-3-(3-(3-nitro-1H-pyrazole-5-carboxamido)-1H-pyrazole-5-carboxamido)-1H-pyrazole-5-carboxamide]
solubility [1]: 0.2 to 4.95 mM (≈ 83.5 to 2070 µg/mL)
ThT values compared with the original trimer [3]: above the trimer standard

CC(NC(=O)COCCOCCOCCNC(=O)c1cc(NC(=O)c2cc(NC(=O)c3cc([N+](=O)[O-])n[nH]3)n[nH]2)n[nH]1)C1CCCCC1 (stereo not drawn) [Trimer-TEG-Che, N-(13-Cyclohexyl-11-oxo-3,6,9-trioxa-12-azatetradecyl)-3-(3-(3-nitro-1H-pyrazole-5-carboxamido)-1H-pyrazole-5-carboxamido)-1H-pyrazole-5-carboxamide]
solubility [1]: 0.2 to 4.95 mM (≈ 135 to 3330 µg/mL)

1-(3-(3-(3-nitro-1H-pyrazole-5-carboxamido)-1H-pyrazole-5-carbox-amido)-1H-pyrazol-5-yl)-1-oxo-5,8,11-trioxa-2-azatridecan-13-carboxamido-(S)-lysinyl-(S)-lysinyl-(S)-lysinyl-(S)-lysinyl-(S)-lysinyl-(S)-glycine [Trimer-TEG-KKKKKG-OH]
ThT fluorescence level, inhibition of aggregation ([3]; 33 μM Aβ42, 198 μM ligand, 10 mM PBS pH 7.3, 72 h): 20%
ThT fluorescence level, disaggregation [4]: 20%

O=C(O)COCCOCCOCCNC(=O)c1cc(NC(=O)c2cc(NC(=O)c3cc([N+](=O)[O-])n[nH]3)n[nH]2)n[nH]1 [Trimer-TEG-OH, {2-[2-(2-{[5-({5-[(5-Nitro-2H-pyrazole-3-carbonyl)-amino]-2H-pyrazole-3-carbonyl}-amino)-2H-pyrazole-3-carbonyl]-amino}-ethoxy)-ethoxy]-ethoxy}-acetic acid]
solubility [1]: 0.2 to 4.95 mM (≈ 113 to 2790 µg/mL)
IC50 [2, 5]: 35.3 µM
PC-12 cell protection [2]: only very modest

Trimer-TEG-LPFFD-OH [1-(3-(3-(3-nitro-1H-pyrazole-5-carboxamido)-1H-pyrazole-5-carbox-amido)-1H-pyrazol-5-yl)-1-oxo-5,8,11-trioxa-2-azatridecan-13-carboxamido-(S)-leucinyl-(S)-prolinyl-(S)-phenylalaninyl-(S)-phenylalaninyl-(S)-aspartic acid]
IC50 ([2]; read-out: IC50 of inhibition of Aβ-induced toxicity, PC-12 cells, MTT, Aβ42 10 μM, ligand 0.3-100 μM): 10.1 µM

O=C(O)CCCNC(=O)c1cc(NC(=O)c2cc(NC(=O)c3cc([N+](=O)[O-])n[nH]3)n[nH]2)n[nH]1 [Trimer-GABA-OH, 4-(3-(3-(3-Nitro-1H-pyrazole-5-carboxamido)-1H-pyrazole-5-carboxamido)-1H-pyrazole-5-carboxamido)butanoic acid]
solubility [1]: 0.2 to 4.95 mM (≈ 92.1 to 2280 µg/mL)
IC50 [2, 5]: 18.5 µM
ThT values compared with the original trimer [3]: above the trimer standard

CCOC(=O)COCCOCCOCCNC(=O)c1cc(NC(=O)c2cc(NC(=O)c3cc([N+](=O)[O-])n[nH]3)n[nH]2)n[nH]1 [Trimer-TEG-OEt, 1-(3-(3-(3-Nitro-1H-pyrazole-5-carboxamido)-1H-pyrazole-5-carboxamido)-1H-pyrazole-5-yl)-1-oxo-5,8,11-trioxa-2-azatridecan-13-oic acid ethyl ester]
solubility [1]: 0.2 to 4.95 mM (≈ 119 to 2930 µg/mL)
PC-12 cell protection [2]: only very modest

NCCCC[C@H](NC(=O)c1cc(NC(=O)c2cc(NC(=O)c3cc([N+](=O)[O-])n[nH]3)n[nH]2)n[nH]1)C(=O)NCCCOCCOCCOCCCNC(=O)[C@H](CCCCN)NC(=O)c1cc(NC(=O)c2cc(NC(=O)c3cc([N+](=O)[O-])n[nH]3)n[nH]2)n[nH]1 [Trim-Lys-TEGDA-Lys-Trim, N,N′-((5S,23S)-1,27-diamino-6,22-dioxo-11,14,17-trioxa-7,21-diazaheptacosane-5,23-diyl)bis(3-(3-(3-nitro-1H-pyrazole-5-carboxamido)-1H-pyrazole-5-carboxamido)-1H-pyrazole-5-carboxamide)]
solubility [1]: > 4.95 mM
IC50 [2, 5]: 21.5 µM

COC(=O)CCCNC(=O)c1cc(NC(=O)c2cc(NC(=O)c3cc([N+](=O)[O-])n[nH]3)n[nH]2)n[nH]1 [Trimer-GABA-OMe, 4-(3-(3-(3-Nitro-1H-pyrazole-5-carboxamido)-1H-pyrazole-5-carboxamido)-1H-pyrazole-5-carboxamido)butanoic acid methyl ester]
solubility [1]: 0.2 to 4.95 mM (≈ 94.9 to 2350 µg/mL)
IC50 [2, 5]: 20.3 µM
ThT values compared with the original trimer [3]: above the trimer standard

CC(NC(=O)c1cc(NC(=O)c2cc(NC(=O)c3cc([N+](=O)[O-])n[nH]3)n[nH]2)n[nH]1)C1CCCCC1 (stereo not drawn) [Trimer-Che, N-(1-Cyclohexylethyl)-3-(3-(3-nitro-1H-pyrazole-5-carboxamido)-1H-pyrazole-5-carboxamido)-1H-pyrazole-5-carboxamide]
solubility [1]: 0.2 to 4.95 mM (≈ 96.9 to 2400 µg/mL)
ThT values compared with the original trimer [3]: surpass the original trimer activity

CC(NC(=O)C(CCCCN)NC(=O)c1cc(NC(=O)c2cc(NC(=O)c3cc([N+](=O)[O-])n[nH]3)n[nH]2)n[nH]1)C1CCCCC1.O=C(O)C(F)(F)F (stereo not drawn) [Trimer-Lys-Che, N-(6-Amino-1-(1-cyclohexylethylamino)-1-oxohexan-2-yl)-3-(3-(3-nitro-1H-pyrazole-5-carboxamido)-1H-pyrazole-5-carboxamido)-1H-pyrazole-5-carboxamide-trifluoro-acetate]
solubility [1]: > 4.95 mM
ThT values compared with the original trimer [3]: surpass the original trimer activity
